The record followed here is ChEMBL document CHEMBL1157256, “Junceellolides J-L, 11,20-epoxybriaranes from the gorgonian coral Junceella fragilis” (2006).

A short description of experiment [1]: Antioxidant activity in human neutrophils assessed as inhibition of superoxide generation at 10 ug/mL by colorimetric method relative to control. The format is functional. As to conditions: Neutrophil.
A further experiment concerns Neutrophil. Put plainly: Inhibition of FMLP/cytochalasin B-stimulated elastase release in human neutrophils at 10 ug/mL relative to control. The format is functional.

As usually defined, the inhibition is the percentage by which the read-out fell short of the control. Regarding `CC(=O)O[C@H]1CC[C@]2(CO2)[C@@H]2[C@H](OC(C)=O)[C@]3(O)[C@@H](C)C(=O)O[C@H]3[C@@H](O)[C@](C)(O)CC[C@H](OC(C)=O)[C@@]12C` [JUNCEELLOLIDE L], the results for the inhibition at 10 µg/mL (in experiment [1]; with Neutrophil) were 5.55% and 5.52%, respectively.
The like results for `CC(=O)O[C@H]1CC[C@@]2(CO2)[C@@H]2[C@H](OC(C)=O)[C@]3(O)[C@@H](C)C(=O)O[C@H]3[C@@H]3O[C@]3(C)CC[C@H](OC(C)=O)[C@@]12C` [JUNCEELLOLIDE J] were, in that order, 7.66% and 5.17%.
Taken in the same sequence, the figures for `CC(=O)O[C@H]1CC/C(C)=C\[C@@H]2OC(=O)[C@H](C)[C@@]2(O)[C@@H](OC(C)=O)[C@H]2[C@@]3(CC[C@H](OC(C)=O)[C@]12C)CO3` were 22.6% and 15.4%.
The like results for `CC(=O)O[C@H]1CC/C(C)=C\[C@@H]2OC(=O)[C@H](C)[C@@]2(O)[C@@H](OC(C)=O)[C@H]2[C@]3(CC[C@H](OC(C)=O)[C@]12C)CO3` [JUNCEELLOLIDE K] were, in that order, 13.9% and 15%.
